Patent publication EP0361645B1, “Organic hydrazine derivatives for pharmaceutical use” (ROHM AND HAAS COMPANY, priority 1988, dated 1990)

Assays:
antiecdysone antiserum = experiment: Binding by antiecdysone antiserum (radioimmunoassay); conditions: ^3H-alpha ecdysone as the radioligand
Experimental: The invention will now be further described by way of exemplification and by reference to the drawings in which; • Figure 1. Both 20-hydroxyecdysone and Example No. 3 induce process elaboration (A) and inhibition of cell proliferation (B) in Kr cells in a dose-dependent manner. Initial cell density was 2 X 10^6 cells/ml; after incubation of 1 ml aliquots of the cells with the compound for 48 hours the cells were triturated gently and the percentage of cells responding (with processes longer than approximately 17 um, see Cherbas et al. 189 Wilhelm Roux's Arch. 1 (1980)) and total cell density was determined by hemocytom- eter counting, relative to ethanol (1 ul)-treated controls. Determinations were in triplicate for each dose. […] Induction of acetylcholinesterase by varying concentrations of 20-hydroxyecdysone and Example No. 3. Kr cells at an initial density of 3 X 10^6 cells/ml (10 ml per sample) were incubated with the agonist for three days. After harvesting, by centrifugation at 3000 X g, the cell pellets were washed with Robb's Drosophila saline (18, 2 X 5 ml) at 4 ° C, then lysed by sonication in 1 ml of phosphate buffer (pH 7.4, I = 0.1 M) containing 0.5 M NaCI, 0.25 M EDTA and 0.5% TRITON? X-100. See Cherbas, 197 Science 275 (1977). Triton is a registered trademark of Rohm and Haas Company for a alkylaryl polyoxyethylene glycol surfactant. After centrifugation at 16,000 X g, the supernatants were assayed for acetylcholinesterase activity by an adaptation of the method of Ellman et al., 7 Biochem. Pharmacol. 88 (1961), by subtracting out any 412 nm absorbance observed in incubations in the presence of 2 X 10-5 eserine sulfate. […] Absorbance at 412 nm was then measured. Protein concentration in extracts was measured by the Biorad method. […] Ecdysteroid titers were measured by a radioimmunoassay adapted from Warren et al., 40 Experientia 393 (1984) with Protein A-Staph. aureus suspension (Sigma) used as the reagent to separate bound from free ligand. […]

Kr cells = experiment: Process elaboration and inhibition of cell proliferation in Kr cells; assay type: cell-based, Drosophila; conditions: at saturating concentrations
Experimental: The invention will now be further described by way of exemplification and by reference to the drawings in which; • Figure 1. Both 20-hydroxyecdysone and Example No. 3 induce process elaboration (A) and inhibition of cell proliferation (B) in Kr cells in a dose-dependent manner. Initial cell density was 2 X 10^6 cells/ml; after incubation of 1 ml aliquots of the cells with the compound for 48 hours the cells were triturated gently and the percentage of cells responding (with processes longer than approximately 17 um, see Cherbas et al. 189 Wilhelm Roux's Arch. 1 (1980)) and total cell density was determined by hemocytom- eter counting, relative to ethanol (1 ul)-treated controls. Determinations were in triplicate for each dose. […] Induction of acetylcholinesterase by varying concentrations of 20-hydroxyecdysone and Example No. 3. Kr cells at an initial density of 3 X 10^6 cells/ml (10 ml per sample) were incubated with the agonist for three days. After harvesting, by centrifugation at 3000 X g, the cell pellets were washed with Robb's Drosophila saline (18, 2 X 5 ml) at 4 ° C, then lysed by sonication in 1 ml of phosphate buffer (pH 7.4, I = 0.1 M) containing 0.5 M NaCI, 0.25 M EDTA and 0.5% TRITON? X-100. See Cherbas, 197 Science 275 (1977). Triton is a registered trademark of Rohm and Haas Company for a alkylaryl polyoxyethylene glycol surfactant. After centrifugation at 16,000 X g, the supernatants were assayed for acetylcholinesterase activity by an adaptation of the method of Ellman et al., 7 Biochem. Pharmacol. 88 (1961), by subtracting out any 412 nm absorbance observed in incubations in the presence of 2 X 10-5 eserine sulfate. Thus reaction mixtures contained 50 ul of enzyme extract, 20 ul eserine (blank tubes only) and 1.0 ml of 0.5 mM acetylthiocholine, 0.3 mM dithiobisnitrobenzoic acid in phosphate buffer (pH 7.4, I = 0.1 M). Incubations were at 25 ° C for two hours; reactions in active tubes were terminated by addition of eserine. Absorbance at 412 nm was then measured. Protein concentration in extracts was measured by the Biorad method. […] Scatchard plot of ^3H-ponasterone A binding to Kr cell cytosolic receptor extracts in the presence of differing concentrations of Example No. 3. Cytosolic extract preparation and ecdysteroid receptor assays were essentially as described in Sage, 111 Meth. in Enzymol. 458 (1985). Example No. 3 was added in 1 ul DMSO to 50 ul of radioligand in 10 mM Tris buffer (pH 7.2) and 50 ul of undiluted cytosol extract. […] Ecdysteroid titers were measured by a radioimmunoassay adapted from Warren et al., 40 Experientia 393 (1984) with Protein A-Staph. aureus suspension (Sigma) used as the reagent to separate bound from free ligand. […]

ecdysone receptor = molecular target: T1, ecdysone receptor (Drosophila melanogaster, UniProt P34021); experiment: ^3H-ponasterone A binding to / displacement from Kr cell cytosolic receptor extracts; conditions: for displacement of ^3H-ponasterone A from cytosolic receptor extracts: at saturating concentrations
T1 construct: endogenous in cells; host or cells: Drosophila Kr (Kc) cells, undiluted cytosolic extract
T1 sequence (P34021 1-878): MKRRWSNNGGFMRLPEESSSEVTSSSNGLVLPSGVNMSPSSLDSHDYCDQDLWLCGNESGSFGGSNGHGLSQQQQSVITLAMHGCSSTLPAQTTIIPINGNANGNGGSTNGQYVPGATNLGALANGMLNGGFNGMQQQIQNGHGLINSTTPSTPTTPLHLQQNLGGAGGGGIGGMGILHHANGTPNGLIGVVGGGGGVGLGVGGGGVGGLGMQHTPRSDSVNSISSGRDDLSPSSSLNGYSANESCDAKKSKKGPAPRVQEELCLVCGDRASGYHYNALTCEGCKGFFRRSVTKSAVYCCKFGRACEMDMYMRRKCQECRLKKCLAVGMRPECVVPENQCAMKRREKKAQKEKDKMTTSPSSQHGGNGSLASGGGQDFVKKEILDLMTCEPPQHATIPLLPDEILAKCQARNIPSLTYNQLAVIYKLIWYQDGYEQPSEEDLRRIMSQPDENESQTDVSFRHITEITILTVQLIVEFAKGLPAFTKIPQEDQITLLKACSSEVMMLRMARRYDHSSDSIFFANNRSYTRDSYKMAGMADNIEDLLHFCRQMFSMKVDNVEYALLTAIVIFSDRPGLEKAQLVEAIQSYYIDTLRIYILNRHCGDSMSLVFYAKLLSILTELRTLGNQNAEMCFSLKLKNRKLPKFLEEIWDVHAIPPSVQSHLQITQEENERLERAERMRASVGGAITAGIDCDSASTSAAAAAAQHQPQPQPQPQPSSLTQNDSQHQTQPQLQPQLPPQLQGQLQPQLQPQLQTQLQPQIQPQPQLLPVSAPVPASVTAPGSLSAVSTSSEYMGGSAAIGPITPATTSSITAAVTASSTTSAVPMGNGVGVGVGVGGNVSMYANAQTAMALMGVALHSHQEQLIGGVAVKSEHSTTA
T1 sequence (P20153 1-508 partner): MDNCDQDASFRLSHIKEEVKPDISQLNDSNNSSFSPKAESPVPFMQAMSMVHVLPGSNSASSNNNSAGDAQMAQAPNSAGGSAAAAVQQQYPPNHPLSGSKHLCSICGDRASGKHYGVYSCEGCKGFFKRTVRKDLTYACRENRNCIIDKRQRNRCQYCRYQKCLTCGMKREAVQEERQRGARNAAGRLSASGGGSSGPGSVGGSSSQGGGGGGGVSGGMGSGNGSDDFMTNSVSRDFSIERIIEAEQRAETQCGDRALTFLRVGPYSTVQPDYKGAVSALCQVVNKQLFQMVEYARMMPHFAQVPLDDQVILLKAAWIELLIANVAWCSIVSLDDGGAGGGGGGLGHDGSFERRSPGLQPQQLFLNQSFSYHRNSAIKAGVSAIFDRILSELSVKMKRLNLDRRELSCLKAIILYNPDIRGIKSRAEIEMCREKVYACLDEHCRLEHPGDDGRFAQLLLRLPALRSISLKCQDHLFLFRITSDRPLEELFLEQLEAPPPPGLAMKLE
Experimental: The invention will now be further described by way of exemplification and by reference to the drawings in which; • Figure 1. Both 20-hydroxyecdysone and Example No. 3 induce process elaboration (A) and inhibition of cell proliferation (B) in Kr cells in a dose-dependent manner. Initial cell density was 2 X 10^6 cells/ml; after incubation of 1 ml aliquots of the cells with the compound for 48 hours the cells were triturated gently and the percentage of cells responding (with processes longer than approximately 17 um, see Cherbas et al. 189 Wilhelm Roux's Arch. 1 (1980)) and total cell density was determined by hemocytom- eter counting, relative to ethanol (1 ul)-treated controls. Determinations were in triplicate for each dose. […] Induction of acetylcholinesterase by varying concentrations of 20-hydroxyecdysone and Example No. 3. Kr cells at an initial density of 3 X 10^6 cells/ml (10 ml per sample) were incubated with the agonist for three days. After harvesting, by centrifugation at 3000 X g, the cell pellets were washed with Robb's Drosophila saline (18, 2 X 5 ml) at 4 ° C, then lysed by sonication in 1 ml of phosphate buffer (pH 7.4, I = 0.1 M) containing 0.5 M NaCI, 0.25 M EDTA and 0.5% TRITON? X-100. See Cherbas, 197 Science 275 (1977). Triton is a registered trademark of Rohm and Haas Company for a alkylaryl polyoxyethylene glycol surfactant. After centrifugation at 16,000 X g, the supernatants were assayed for acetylcholinesterase activity by an adaptation of the method of Ellman et al., 7 Biochem. Pharmacol. 88 (1961), by subtracting out any 412 nm absorbance observed in incubations in the presence of 2 X 10-5 eserine sulfate. Thus reaction mixtures contained 50 ul of enzyme extract, 20 ul eserine (blank tubes only) and 1.0 ml of 0.5 mM acetylthiocholine, 0.3 mM dithiobisnitrobenzoic acid in phosphate buffer (pH 7.4, I = 0.1 M). Incubations were at 25 ° C for two hours; reactions in active tubes were terminated by addition of eserine. Absorbance at 412 nm was then measured. Protein concentration in extracts was measured by the Biorad method. […] Scatchard plot of ^3H-ponasterone A binding to Kr cell cytosolic receptor extracts in the presence of differing concentrations of Example No. 3. Cytosolic extract preparation and ecdysteroid receptor assays were essentially as described in Sage, 111 Meth. in Enzymol. 458 (1985). Example No. 3 was added in 1 ul DMSO to 50 ul of radioligand in 10 mM Tris buffer (pH 7.2) and 50 ul of undiluted cytosol extract. After incubation overnight at 0.5 ° C, bound label was separated from free by addition of 300 ul 1% HCI-washed charcoal (Sigma) and 0.1% Dextran T70 (Pharmacia) in Tris buffer, centrifugation (13,000 X g, 3 min, 4 ° C) and liquid scintillation counting of a 300 ul aliquot of the supernatant in 15 ml Hydrofluor (National Diagnostics). Points are means of duplicate determinations. […] Relative ability of 20 hydroxyecdysone and Example No. 3 to displace ^3H-ponasterone A from cytosolic receptor extracts. Conditions were as in Figure 3 except that only 0.5 nM ponasterone A was used. • Points are means of duplicate determinations. For 20-hydroxyecdysone EC50 = 0.1 uM while for Example No. 3 EC50 = 3.0 uM. Control binding = 10 femtomoles ^3H-ponasterone A bound per mg cytosol protein. • Figure 4. Effects of 10 ppm Example No. 3 administered in artificial diet to newly ecdysed fourth instar (L4) M. sexta, monitoring (A)immunoreactive hemolymph ecdysteroid titers and (B)weight gain. Ecdysteroid titers were measured by a radioimmunoassay adapted from Warren et al., 40 Experientia 393 (1984) with Protein A-Staph. aureus suspension (Sigma) used as the reagent to separate bound from free ligand. The antiecdysone antiserum was formed by reaction of 20-hydroxyecdysone with carboxymethox- yamine resulting in the corresponding ecdysteroid 6-oxime acid. […] All samples were diluted appropriately in borate buffer pH 8.0 and assayed in duplicate. […]

C[C@H]([C@H](O)CCC(C)(C)O)[C@H]1CC[C@@]2(O)C3=CC(=O)[C@@H]4C[C@@H](O)[C@@H](O)C[C@]4(C)[C@H]3CC[C@]12C [alpha-ecdysone, reference compound]
fold greater affinity than 20-hydroxyecdysone (antiecdysone antiserum): 2.7 fold

O=C(NC(=O)c1c(F)cccc1F)Nc1ccc(Cl)cc1 [1-(4-chloro-phenyl)-3-(2,6-difluorobenzoyl)urea]
ecdysone-like responses in whole Kr cells (Kr cells): failed to produce ecdysone-like responses
displacement of ^3H-ponasterone A from cytosolic receptor extracts (ecdysone receptor): did not displace

O=C(NC(=O)c1c(F)cccc1F)Nc1cc(Cl)c(Oc2ncc(C(F)(F)F)cc2Cl)c(Cl)c1 [1-(3,5-dichloro-4-(3-chloro-5-trifluoromethyl-2-pyridyloxy)phenyl)-3-(2,6-difluorobenzoyl)urea]
ecdysone-like responses in whole Kr cells (Kr cells): failed to produce ecdysone-like responses
displacement of ^3H-ponasterone A from cytosolic receptor extracts (ecdysone receptor): did not displace

CC(C)CC[C@@H](O)[C@](C)(O)[C@H]1CC[C@@]2(O)C3=CC(=O)[C@@H]4C[C@@H](O)[C@@H](O)C[C@]4(C)[C@H]3CC[C@]12C [^3H-ponasterone A, ponasterone A]
Bmax (ecdysone receptor; Figure 3A legend, in the absence of Example No. 3): 0.79 nm
Kd (ecdysone receptor; Scatchard plot, in the absence of Example No. 3): 0.29 nM
Bmax (ecdysone receptor; text b415, in the absence of Example No. 3): 0.71 nM
